Each structure is given as a SMILES string.

By melting point is commonly meant the temperature, or range, at which the solid turns liquid.

For one series, the system named is Phosphodiesterase IV. Put plainly: Inhibitory action on phosphodiesterase IV ([3H]cAMP hydrolysis, liquid scintillation). It counts as biochemical. The note with it: test substance 10 μM; enzyme isolated from U-937 cell; cAMP 1 μM substrate; 30 min at 30° C.; duplicate. As for the experimental part:
Phosphodiesterase IV was isolated using U-937 cell as origin (Torphy, T. J. et al., J. Pharmacol. Exp. Ther., 263, 1195-1205 (1992)). Using [^3 H]cAMP and cAMP (1 μM) as substrate/tracer, incubation was performed for 30 min at 30° C. [^3H]5′-AMP was measured by liquid scintillation. Inhibitory activity is represented by the rate of inhibition of a test substance with respect to a control group that is without the test substance, and is calculated by the following formula: Inhibitory activity (%)=100×(control group value−value of group with test substance addition/control group value.
All tests were implemented in duplicate.

With `COc1ccc(CCN(C)C(=O)/C=C/c2cccnc2)cc1OC` [Compound 84, (E)-N-(3,4-dimethoxyphenethyl)-N-methyl-3-(3-pyridyl)-2-propenamide], in the series with Phosphodiesterase IV, the “Phosphodiesterase IV inhibitory activity (10 μM)” value is recorded as 49%. `COCCOCOc1c(OC)cc(CCN(C)C(=O)/C=C/c2cccnc2)cc1OC` [Compound 36] returned a melting point of 152 to 155 °C. `COc1ccc(CCNC(=S)/C=C/c2cccnc2)cc1OC.Cl` [Compound 136] showed a melting point of 182 to 187 °C. The “Phosphodiesterase IV inhibitory activity (10 μM)” value with Phosphodiesterase IV turned out to be 45%.

Regarding `COc1ccc(CCN(C)C(=O)/C=C/c2cccnc2)cc1OC` [Compound 143], the “Phosphodiesterase IV inhibitory activity (10 μM)” value in the series on Phosphodiesterase IV stood at 50%. As for `COc1ccc(CCN(C)C(=O)/C=C/c2cccnc2)cc1OC` [Compound 146], the “Phosphodiesterase IV inhibitory activity (10 μM)” value with Phosphodiesterase IV was 43%. On to `COc1ccc(CCN(C)C(=O)/C=C/c2cccnc2)cc1OC.Cl` [Compound 140], for which the “Phosphodiesterase IV inhibitory activity (10 μM)” value with Phosphodiesterase IV is reported as 54%. On to `COc1ccc(CCN(C)C(=O)/C=C/c2ccccn2)cc1OC.Cl` [Compound 153], for which the “Phosphodiesterase IV inhibitory activity (10 μM)” value in the series with Phosphodiesterase IV came out at 59%. In turn, `COC(=O)CN(CCc1ccc(OC)c(OC)c1)C(=O)/C=C/c1cccnc1.Cl` had a melting point of 168 to 170 °C.

In turn, `COc1ccc(CCN(C)C(=O)/C(C#N)=C/c2cccnc2)cc1OC` [Compound 2] had a melting point of 115 to 120 °C. For the same molecule, the “Phosphodiesterase IV inhibitory activity (10 μM)” value in the series with Phosphodiesterase IV amounted to 72%. As for `CCOC(=O)COc1ccc(CNC(=O)/C=C/c2cccnc2)cc1OC` [Compound 105], the melting point lay within 105 to 107 °C. Regarding `COc1ccc(CCN(C)C(=S)/C=C/c2cccnc2)cc1OC.Cl` [Compound 135, (E)-N-(3,4-dimethoxyphenethyl)-N-methyl-3-(3-pyridyl)-2-propenethioamide Hydrochloride], in the series with Phosphodiesterase IV, the “Phosphodiesterase IV inhibitory activity (10 μM)” value stood at 53%. For `COc1ccc(CCN(C)C(=O)/C=C/c2cccnc2)cc1OC` [Compound 144], the “Phosphodiesterase IV inhibitory activity (10 μM)” value in the series on Phosphodiesterase IV worked out at 47%. For `COc1ccc(C(=O)CN(C)C(=O)/C=C/c2cccnc2)cc1OC` [Compound 155, (E)-N-[2-(3,4-dimethoxyphenyl)-2-oxoethyl]-N-methyl-3-(3-pyridyl)-2-propenamide], the “Phosphodiesterase IV inhibitory activity (10 μM)” value in the series with Phosphodiesterase IV was 69%.

Values taken from patent publication US20050187264A1, “Phosphodiesterase iv inhibitor containing pyridylacrylamide derivative” (priority 2002, published 2005).
